Test results taken from US9695155B2, “Herbicidal substituted pyrimidinyloxy benzene compounds” (E. I. DU PONT DE NEMOURS AND COMPANY, priority 2013, dated 2017).

Legend:
[1] = tested on: morningglory; test: Test A preemergence; format: in vivo, Ipomoea spp.; conditions: for Plant response rating, Morningglory: 125 g ai/ha, 0 to 100 scale where 0 is no effect and 100 is complete control; for Morningglory plant response rating: 500 g ai/ha, 0 to 100 scale, 0 no effect, 100 complete control, approx. 10 days
Outline: (§1)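 Injury scores run from 0, no effect, to 100, complete control, judged by eye against untreated plants roughly 10 days after treatment. Chemicals carried a surfactant in a non-phytotoxic solvent and went onto loam–sand soil preemergence or onto one- to two-leaf seedlings postemergence.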

[2] = tested on: barnyardgrass; test: Test C postemergence; format: in vivo, Echinochloa crus-galli; conditions: for Plant response rating (0 to 100), Barnyardgrass: postemergence; for Plant response rating, Barnyardgrass: Postemergence, scale 0 to 100 (0 no effect, 100 complete control)
Outline: (§2)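 Injury was assessed visually against controls 13 to 15 days after application, with 0 meaning no effect and 100 full control; missing entries are shown as a dash. Preemergence sprays hit seeded loam–sand soil, postemergence sprays hit 1- to 4-leaf plants.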

[3] = tested on: kochia; test: Test C postemergence; format: in vivo, Kochia scoparia; conditions: for Plant response rating (0 to 100), Kochia: postemergence; for Plant response rating, Kochia: Postemergence, scale 0 to 100 (0 no effect, 100 complete control)
Outline: as §2

[4] = tested on: oilseed rape; test: Test C postemergence; format: in vivo, Brassica napus; conditions: for Plant response rating (0 to 100), Oilseed Rape: postemergence; for Plant response rating, Oilseed Rape: Postemergence, scale 0 to 100 (0 no effect, 100 complete control)
Outline: as §2

[5] = tested on: large (Lg) crabgrass; test: Test C postemergence; format: in vivo, Digitaria sanguinalis; conditions: for Plant response rating (0 to 100), Crabgrass, Large: postemergence; for Plant response rating, Crabgrass, Large: Postemergence, scale 0 to 100 (0 no effect, 100 complete control)
Outline: as §2

[6] = tested on: yellow nutsedge; test: Test C postemergence; format: in vivo, Cyperus esculentus; conditions: for Plant response rating (0 to 100), Nutsedge, Yellow: postemergence; for Plant response rating, Nutsedge, Yellow: Postemergence, scale 0 to 100 (0 no effect, 100 complete control)
Outline: as §2

[7] = tested on: corn; test: Test A preemergence; format: in vivo, Zea mays; conditions: for Plant response rating, Corn: 125 g ai/ha, 0 to 100 scale where 0 is no effect and 100 is complete control; for Corn plant response rating: 500 g ai/ha, 0 to 100 scale, 0 no effect, 100 complete control, approx. 10 days
Outline: as §1

[8] = tested on: morningglory; test: Test C postemergence; format: in vivo, Ipomoea coccinea; conditions: for Plant response rating (0 to 100), Morningglory: postemergence; for Plant response rating, Morningglory: Postemergence, scale 0 to 100 (0 no effect, 100 complete control)
Outline: as §2

[9] = tested on: wheat; test: Test A postemergence; format: in vivo, Triticum aestivum
Outline: as §1

[10] = tested on: barnyardgrass; test: Test A preemergence; format: in vivo, Echinochloa crus-galli; conditions: for Plant response rating, Barnyardgrass: 125 g ai/ha, 0 to 100 scale where 0 is no effect and 100 is complete control; for Barnyardgrass plant response rating: 500 g ai/ha, 0 to 100 scale, 0 no effect, 100 complete control, approx. 10 days
Outline: as §1

[11] = tested on: blackgrass; test: Test C postemergence; format: in vivo, Alopecurus myosuroides; conditions: for Plant response rating (0 to 100), Blackgrass: postemergence; for Plant response rating, Blackgrass: Postemergence, scale 0 to 100 (0 no effect, 100 complete control)
Outline: as §2

[12] = tested on: morningglory; test: Test A postemergence; format: in vivo, Ipomoea spp.
Outline: as §1

[13] = tested on: sedge, umbrella; test: Test B flooded paddy test; format: in vivo, Cyperus difformis; conditions: Flood, 250 g ai/ha; 0 to 100 scale where 0 is no effect and 100 is complete control
Outline: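 Scores from 0 (no effect) to 100 (complete control) are visual comparisons with controls, taken 13 to 15 days after compound was applied into floodwater 3 cm deep around 2-leaf plants.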

[14] = tested on: wheat; test: Test A preemergence; format: in vivo, Triticum aestivum; conditions: for Plant response rating, Wheat: 125 g ai/ha, 0 to 100 scale where 0 is no effect and 100 is complete control; for Wheat plant response rating: 500 g ai/ha, 0 to 100 scale, 0 no effect, 100 complete control, approx. 10 days
Outline: as §1

[15] = tested on: johnsongrass; test: Test C postemergence; format: in vivo, Sorghum halepense; conditions: for Plant response rating (0 to 100), Johnsongrass: postemergence; for Plant response rating, Johnsongrass: Postemergence, scale 0 to 100 (0 no effect, 100 complete control)
Outline: as §2

[16] = 125 g ai/ha, 0 to 100 scale where 0 is no effect and 100 is complete control
[17] = 500 g ai/ha, 0 to 100 scale, 0 no effect, 100 complete control
[18] = 500 g ai/ha, 0 to 100 scale where 0 is no effect and 100 is complete control

N#Cc1cccc(Oc2ncc(Br)cn2)c1-n1cc(Br)cn1 [Compound 57]
Plant response rating, Morningglory [1]: 0
Morningglory plant response rating [1]: 40
Plant response rating (0 to 100), Barnyardgrass ([2]; 125 g ai/ha): 10
Plant response rating (0 to 100), Barnyardgrass ([2]; 250 g ai/ha): 15
Plant response rating, Barnyardgrass ([2]; 31 g ai/ha, 13 to 15 days): 5
Plant response rating, Barnyardgrass ([2]; 62 g ai/ha): 10
Plant response rating (0 to 100), Kochia ([3]; 125 g ai/ha): 90
Plant response rating (0 to 100), Kochia ([3]; 250 g ai/ha): 100
Plant response rating, Kochia ([3]; 31 g ai/ha, 13 to 15 days): 85
Plant response rating, Kochia ([3]; 62 g ai/ha): 90
Plant response rating (0 to 100), Oilseed Rape ([4]; 125 g ai/ha): 80
Plant response rating (0 to 100), Oilseed Rape ([4]; 250 g ai/ha): 85
Plant response rating, Oilseed Rape ([4]; 31 g ai/ha, 13 to 15 days): 30
Plant response rating, Oilseed Rape ([4]; 62 g ai/ha): 40
Plant response rating (0 to 100), Crabgrass, Large ([5]; 125 g ai/ha): 10
Plant response rating (0 to 100), Crabgrass, Large ([5]; 250 g ai/ha): 30
Plant response rating, Crabgrass, Large ([5]; 31 g ai/ha, 13 to 15 days): 5
Plant response rating, Crabgrass, Large ([5]; 62 g ai/ha): 5
Plant response rating (0 to 100), Nutsedge, Yellow ([6]; 125 g ai/ha): 5
Plant response rating (0 to 100), Nutsedge, Yellow ([6]; 250 g ai/ha): 15
Plant response rating, Nutsedge, Yellow ([6]; 31 g ai/ha, 13 to 15 days): 5
Plant response rating, Nutsedge, Yellow ([6]; 62 g ai/ha): 5
Plant response rating, Corn [7]: 0
Corn plant response rating [7]: 70
Plant response rating (0 to 100), Morningglory ([8]; 125 g ai/ha): 85
Plant response rating (0 to 100), Morningglory ([8]; 250 g ai/ha): 95
Plant response rating, Morningglory ([8]; 31 g ai/ha, 13 to 15 days): 45
Plant response rating, Morningglory ([8]; 62 g ai/ha): 80
Plant response rating, Wheat [9, 16]: 0
Plant response rating, Wheat [9, 17]: 30
Plant response rating, Barnyardgrass [10]: 60
Barnyardgrass plant response rating [10]: 100
Plant response rating (0 to 100), Blackgrass ([11]; 125 g ai/ha): 30
Plant response rating (0 to 100), Blackgrass ([11]; 250 g ai/ha): 30
Plant response rating, Blackgrass ([11]; 31 g ai/ha, 13 to 15 days): 10
Plant response rating, Blackgrass ([11]; 62 g ai/ha): 15
Plant response rating, Morningglory [12, 16]: 90
Plant response rating, Morningglory [12, 17]: 80
Plant response rating, Sedge, Umbrella [13]: 80
Plant response rating, Wheat [14]: 0
Wheat plant response rating [14]: 50
Plant response rating (0 to 100), Johnsongrass ([15]; 125 g ai/ha): 5
Plant response rating (0 to 100), Johnsongrass ([15]; 250 g ai/ha): 20
Plant response rating, Johnsongrass ([15]; 31 g ai/ha, 13 to 15 days): 5
Plant response rating, Johnsongrass ([15]; 62 g ai/ha): 5

N#Cc1cccc(Oc2ncc(Cl)cn2)c1-n1cc(Cl)cn1 [Compound 72]
Plant response rating, Morningglory [1]: 80
Morningglory plant response rating [1]: 100
Plant response rating (0 to 100), Barnyardgrass ([2]; 125 g ai/ha): 10
Plant response rating (0 to 100), Barnyardgrass ([2]; 250 g ai/ha): 40
Plant response rating, Barnyardgrass ([2]; 31 g ai/ha, 13 to 15 days): 5
Plant response rating, Barnyardgrass ([2]; 62 g ai/ha): 5
Plant response rating (0 to 100), Kochia ([3]; 125 g ai/ha): 95
Plant response rating (0 to 100), Kochia ([3]; 250 g ai/ha): 95
Plant response rating, Kochia ([3]; 31 g ai/ha, 13 to 15 days): 90
Plant response rating, Kochia ([3]; 62 g ai/ha): 90
Plant response rating (0 to 100), Oilseed Rape ([4]; 125 g ai/ha): 70
Plant response rating (0 to 100), Oilseed Rape ([4]; 250 g ai/ha): 90
Plant response rating, Oilseed Rape ([4]; 31 g ai/ha, 13 to 15 days): 55
Plant response rating, Oilseed Rape ([4]; 62 g ai/ha): 70
Plant response rating (0 to 100), Crabgrass, Large ([5]; 125 g ai/ha): 55
Plant response rating (0 to 100), Crabgrass, Large ([5]; 250 g ai/ha): 60
Plant response rating, Crabgrass, Large ([5]; 31 g ai/ha, 13 to 15 days): 5
Plant response rating, Crabgrass, Large ([5]; 62 g ai/ha): 10
Plant response rating (0 to 100), Nutsedge, Yellow ([6]; 125 g ai/ha): 0
Plant response rating (0 to 100), Nutsedge, Yellow ([6]; 250 g ai/ha): 10
Plant response rating, Nutsedge, Yellow ([6]; 31 g ai/ha, 13 to 15 days): 0
Plant response rating, Nutsedge, Yellow ([6]; 62 g ai/ha): 0
Plant response rating, Corn [7]: 30
Corn plant response rating [7]: 50
Plant response rating (0 to 100), Morningglory ([8]; 125 g ai/ha): 85
Plant response rating (0 to 100), Morningglory ([8]; 250 g ai/ha): 90
Plant response rating, Morningglory ([8]; 31 g ai/ha, 13 to 15 days): 75
Plant response rating, Morningglory ([8]; 62 g ai/ha): 75
Plant response rating, Wheat [9, 16]: 20
Plant response rating, Wheat [9, 18]: 50
Plant response rating, Barnyardgrass [10]: 80
Barnyardgrass plant response rating [10]: 100
Plant response rating (0 to 100), Blackgrass ([11]; 125 g ai/ha): 15
Plant response rating (0 to 100), Blackgrass ([11]; 250 g ai/ha): 15
Plant response rating, Blackgrass ([11]; 31 g ai/ha, 13 to 15 days): 10
Plant response rating, Blackgrass ([11]; 62 g ai/ha): 10
Plant response rating, Morningglory [12, 16]: 90
Plant response rating, Morningglory [12, 18]: 100
Plant response rating, Sedge, Umbrella [13]: 85
Plant response rating, Wheat [14]: 20
Wheat plant response rating [14]: 60
Plant response rating (0 to 100), Johnsongrass ([15]; 125 g ai/ha): 5
Plant response rating (0 to 100), Johnsongrass ([15]; 250 g ai/ha): 25
Plant response rating, Johnsongrass ([15]; 31 g ai/ha, 13 to 15 days): 0
Plant response rating, Johnsongrass ([15]; 62 g ai/ha): 5
